Laboratory results published in patent US20030181441A1, “TACE INHIBITORS” (priority 1998, published 2003).

Assays:
Assay type in all cases: biochemical
MMP-13 = MMP-13 (Homo sapiens, UniProt P45452); experiment: Inhibition of MMP-13, fluorescence assay
Protocol: Human recombinant MMP-13 is activated with 2 mM APMA (p-aminophenyl mercuric acetate) for 1.5 hours, at 37° C. and is diluted to […] in assay buffer (50 mM Tris, pH 7.5, 200 mM sodium chloride, 5 mM calcium chloride, 20 μM zinc chloride, 0.02% brij). Twenty-five microliters of diluted enzyme is added per well of a 96 well microfluor plate. The enzyme is then diluted in a 1:4 ratio in the assay by the addition of inhibitor and substrate to give a final concentration in the assay of […].
10 mM stock solutions of inhibitors are made up in dimethyl sulfoxide and then diluted in assay buffer as per the inhibitor dilution scheme for inhibition of human collagenase (MMP-1): Twenty-five microliters of each concentration is added in triplicate to the microfluor plate. The final concentrations in the assay are 30 μM, 3 μM, 0.3 μM, and 0.03 μM.
Substrate (Dnp-Pro-Cha-Gly-Cys(Me)-His-Ala-Lys(NMA)—NH2) is prepared as for inhibition of human collagenase (MMP-1) and […] is added to each well to give a final assay concentration of 10 μM. Fluorescence readings (360 nm excitation; 450 emission) are taken at time 0 and every 5 minutes for 1 hour.
Positive controls consist of enzyme and substrate with no inhibitor and blanks consist of substrate only.
IC50's are determined as per inhibition of human collagenase (MMP-1). If IC50's are reported to be less than 0.03 μM, inhibitors are then assayed at final concentrations of 0.3 μM, 0.03 μM, 0.003 μM and 0.0003 μM.

MMP-1 = molecular target: T1, MMP-1 (Homo sapiens, UniProt P03956); experiment: Inhibition of Human Collagenase (MMP-1), fluorescence assay
T1 sequence (P03956 100-469): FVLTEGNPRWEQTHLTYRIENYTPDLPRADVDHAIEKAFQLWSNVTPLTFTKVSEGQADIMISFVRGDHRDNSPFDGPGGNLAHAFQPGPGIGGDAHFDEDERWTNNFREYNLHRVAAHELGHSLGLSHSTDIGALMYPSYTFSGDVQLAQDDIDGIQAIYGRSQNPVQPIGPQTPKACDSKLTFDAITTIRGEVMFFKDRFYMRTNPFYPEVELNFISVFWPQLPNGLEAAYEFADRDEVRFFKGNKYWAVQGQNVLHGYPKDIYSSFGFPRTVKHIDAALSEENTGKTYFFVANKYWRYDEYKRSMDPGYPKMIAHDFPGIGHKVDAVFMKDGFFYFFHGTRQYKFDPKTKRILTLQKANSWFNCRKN
Protocol: Inhibition of Human Collagenase (MMP-1)
Human recombinant collagenase is activated with trypsin using the following ratio: 10 μg trypsin per 100 μg of collagenase. The trypsin and collagenase are incubated at room temperature for 10 minutes then a five fold excess (50 μg/10 μg trypsin) of soybean trypsin inhibitor is added.
10 mM stock solutions of inhibitors are made up in dimethyl sulfoxide and then diluted using the following Scheme:
Twenty-five microliters of each concentration is then added in triplicate to appropriate wells of a 96 well microfluor plate. The final concentration of inhibitor will be a 1:4 dilution after addition of enzyme and substrate. Positive controls (enzyme, no inhibitor) are set up in wells D1-D6 and blanks (no enzyme, no inhibitors) are set in wells D7-D12.
Collagenase is diluted to 400 ng/ml and 25 μl is then added to appropriate wells of the microfluor plate. Final concentration of collagenase in the assay is 100 ng/ml.
Substrate (DNP-Pro-Cha-Gly-Cys(Me)-His-Ala-Lys(NMA)-NH2) is made as a 5 mM stock in dimethyl sulfoxide and then diluted to […] in assay buffer. The assay is initiated by the addition of 50 μl substrate per well of the microfluor plate to give a final concentration of […] Fluorescence readings (360 nm excitation, 460 nm emission) were taken at time 0 and then at 20 minute intervals. The assay is conducted at room temperature with a typical assay time of 3 hours.
Fluorescence vs time is then plotted for both the blank and collagenase containing samples (data from triplicate determinations is averaged). […] The zero time is used as a blank for each compound at each concentration and these values are subtracted from the 120 minute data. Data is plotted as inhibitor concentration vs % control (inhibitor fluorescence divided by fluorescence of collagenase alone×100). IC50's are determined from the concentration of inhibitor that gives a signal that is 50% of the control.
If IC50's are reported to be <0.03 μM then the inhibitors are assayed at concentrations of 0.3 μM, 0.03 μM, […].

TACE = TACE (Homo sapiens, UniProt P78536); experiment: Recombinant TNFα converting enzyme (TACE) activity, fluorescent quenched substrate; conditions: for MMP-1/TACE IC50 selectivity ratio: ratio of MMP-1 and TACE IC50 values
Chain of TACE (P78536 223-474): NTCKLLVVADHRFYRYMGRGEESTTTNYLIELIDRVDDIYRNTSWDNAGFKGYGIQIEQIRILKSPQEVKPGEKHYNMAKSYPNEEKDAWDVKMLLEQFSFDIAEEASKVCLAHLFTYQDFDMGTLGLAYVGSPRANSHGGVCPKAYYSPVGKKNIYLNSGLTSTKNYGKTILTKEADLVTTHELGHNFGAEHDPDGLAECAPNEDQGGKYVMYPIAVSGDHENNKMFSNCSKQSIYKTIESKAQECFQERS
Text: Method for the Evaluation of Recombinant TNFα Converting Enzyme Activity.
Preparation of Recombinant TACE:
A DNA fragment coding for the signal sequence, prodomain and catalytic domain of TACE (amino acids […]), was amplified by polymerase chain reaction using a human lung cDNA library as a template. The amplified fragment was cloned into pFastBac vector. The DNA sequence of the insert was confirmed for both the strands. A bacmid prepared using pFastBac in E. coli DH10Bac was transfected into SF9 insect cells. The virus particles were amplified to P1, P2, P3 stages. The P3 virus was infected into both Sf9 and High Five insect cells and grown at 27° C. for 48 hours. The medium was collected and used for assays and further purification.
Preparation of Fluorescent Quenched Substrate:
A model peptidic TNF-α substrate (LY-LeucineAlanineGlutamineAlanineValine-ArginineSerine-SerineLysine(CMTR)-Arginine (LY=Lucifer Yellow; CMTR=5-carboxytetramethyl Rhodamine)) was prepared and the concentration estimated by absorbance at 560 nm (E560, 60,000 M-1CM-1) according to the method of Geoghegan, K F, “Improved method for converting an unmodified peptide to an energy-transfer substrate for a proteinase.” Bioconjugate Chem. 7, 385-391 (1995). This peptide encompasses the cleavage cite on pro-TNF which is cleaved in vivo by TACE.
The reaction, carried out in a 96 well plate (Dynatech), was comprised of 70 μl of buffer solution (25 mM Hepes-HCl, pH 7.5, plus 20 uM ZnCl2), 10 μl of 100 μM fluorescent quenched substrate, 10 μl of a DMSO (5%) solution of test compound, and an amount of r-TACE enzyme which will cause 50% cleavage in 60 minutes—in a total volume of 100 μl. The specificity of the enzyme cleavage at the amide bond between alanine and valine was verified by HPLC and mass spectrometry. Initial rates of cleavage were monitored by measuring the rate of increase in fluorescence at 530 nm (excitation at 409 nm) over 30 minutes. The experiment was controlled as follows: 1) for background fluorescence of substrate; 2) for fluorescence of fully cleaved substrate; 3) for fluorescence quenching or augmentation from solutions containing test compound.
The rates from the non-test compound containing “control” reactions were averaged to establish the 100% value. The rate of reaction in the presence of test compound was compared to that in the absence of compound, and tabulated as “percent of non-test compound containing control. The results were plotted as “% of control” vs. the log of compound concentration and a half-maximal point or IC50 value determined. The IC50 for the above assay is a measure of the inhibition of the TNF-α proteolytic activity of TACE. Blockage of binding of TNF-α to TACE as used herein is as described in U.S. Pat. No. 5,830,742, issued Nov. 3, 1998.

Structure (SMILES)	IC50 (MMP-13) [nM]	IC50 (MMP-1) [nM]	IC50 (TACE) [nM]	MMP-1/TACE IC50 selectivity ratio (TACE)
Cc1ccc(C)c(COc2ccc(S(=O)(=O)N3C[C@H](C)O[C@@H](C)[C@@H]3C(=O)NO)cc2)c1	88	3500	10	350
CC1(C)[C@H](C(=O)NO)N(S(=O)(=O)c2ccc(OCc3ccc(F)cc3)cc2)CC[S+]1[O-] (some centres unmarked)	5	345	7.4	46.6
CC1(C)[C@H](C(=O)NO)N(S(=O)(=O)c2ccc(OCc3ccc(F)cc3)cc2)CCS1(=O)=O	1.4	305	7.2	42.4
C[C@@H]1O[C@@H](CO)CN(S(=O)(=O)c2ccc(OCc3ccc(F)cc3)cc2)[C@H]1C(=O)NO	1	1400	4.5	311
C[C@@H]1NCCN(S(=O)(=O)c2ccc(OCc3ccccc3)cc2)[C@H]1C(=O)NO	8	7480	25	299
Cc1ccccc1COc1ccc(S(=O)(=O)N2CCN[C@@H](C)[C@@H]2C(=O)NO)cc1	18	10600	19	558
CC(=O)N1CCN(S(=O)(=O)c2ccc(OCc3ccccc3C)cc2)[C@@H](C(=O)NO)[C@@H]1C	3	1600	6.2	258
C[C@@H]1O[C@@H](C)CN(S(=O)(=O)c2ccc(OCc3ccncc3)cc2)[C@H]1C(=O)NO	6	2000	12	167
